Drawing on ChEMBL document CHEMBL1799982, “Synthesis, protein kinase inhibitory potencies, and in vitro antiproliferative activities of meridianin derivatives” (J Med Chem, 2011), this text covers IC50 for seven molecules.

Assay [1] addresses Cyclin-dependent kinase 5/CDK5 activator 1 (Homo sapiens, UniProt Q00535). Briefly: Inhibition of human recombinant CDK5/p25 using Histone H1 and [gamma32]-ATP after 30 mins by scintillation counting. Format: protein-complex assay.
Assay [2] in a line: Inhibition of pig brain CK1 delta/epsilon using RRKHAAIGpSAYSITA as substrate. On the set-up: species or system Sus scrofa.
The target of assay [3] is Glycogen synthase kinase-3 (Sus scrofa, UniProt B2LUN4+I6LNT8). Briefly: Inhibition of pig brain GSK-3alpha/beta using YRRAAVPPSPSLSRHSSPHQSpEDEEE as substrate.
The target in assay [4] is Dual specificity tyrosine-phosphorylation-regulated kinase 1A (Rattus norvegicus, UniProt Q63470). Briefly: Inhibition of rat recombinant GST-tagged DYRK1A using myelin protein as substrate and [gamma32]-ATP after 30 mins by scintillation counting.
The nature of assay [5]: Antiproliferative activity against human primary fibroblasts after 48 hrs by resazurin reduction test. Format: cell-based. The conditions noted are these: Fibroblast. A general note: Alamar Blue is a resazurin reagent that responds to reducing activity.
A further assay relates to HT-22. Briefly: Antiproliferative activity against mouse HT22 cells by MTS reduction assay. On the technique in general: Tetrazolium dyes change colour on reduction, which living cells bring about.
A further assay has as its system SH-SY5Y. Briefly: Antiproliferative activity against human SH-SY5Y cells by MTS reduction assay.
A further assay relates to IMR-32. Briefly: Antiproliferative activity against human IMR32 cells by MTS reduction assay.
For another assay, the system named is MCF7. Briefly: Antiproliferative activity against human MCF7 cells after 48 hrs by resazurin reduction test. The conditions noted are these: MCF7, 48 h.
In a further assay the test system is PA-1. The assay is described as follows: Antiproliferative activity against human PA1 cells after 48 hrs by resazurin reduction test. The class given is functional, cell-based. The conditions noted are these: PA-1, 48 h.
The test system of a further assay is PC-3. The assay is described as follows: Antiproliferative activity against human PC3 cells after 48 hrs by resazurin reduction test. Conditions: PC-3, 48 h.
The next assay has as its system DU-145. Briefly: Antiproliferative activity against human DU145 cells after 48 hrs by resazurin reduction test. Format: functional, cell-based. The conditions noted are these: DU-145, 48 h.
For assay [6], the target named is Dual specificity protein kinase CLK1 (Homo sapiens, UniProt P49759).

The IC50 is the midpoint of a concentration-inhibition curve.

Cyclin-dependent kinase 5/CDK5 activator 1, sequence (Q00535 whole entry): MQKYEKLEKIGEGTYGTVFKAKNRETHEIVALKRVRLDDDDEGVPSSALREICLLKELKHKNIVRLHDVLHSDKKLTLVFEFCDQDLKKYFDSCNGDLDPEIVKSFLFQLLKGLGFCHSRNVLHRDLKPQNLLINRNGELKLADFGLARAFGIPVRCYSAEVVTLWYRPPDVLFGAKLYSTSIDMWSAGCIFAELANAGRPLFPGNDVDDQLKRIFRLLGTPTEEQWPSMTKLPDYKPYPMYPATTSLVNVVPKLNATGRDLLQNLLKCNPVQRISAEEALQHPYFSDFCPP
Cyclin-dependent kinase 5/CDK5 activator 1, sequence (Q15078 whole entry, further chain): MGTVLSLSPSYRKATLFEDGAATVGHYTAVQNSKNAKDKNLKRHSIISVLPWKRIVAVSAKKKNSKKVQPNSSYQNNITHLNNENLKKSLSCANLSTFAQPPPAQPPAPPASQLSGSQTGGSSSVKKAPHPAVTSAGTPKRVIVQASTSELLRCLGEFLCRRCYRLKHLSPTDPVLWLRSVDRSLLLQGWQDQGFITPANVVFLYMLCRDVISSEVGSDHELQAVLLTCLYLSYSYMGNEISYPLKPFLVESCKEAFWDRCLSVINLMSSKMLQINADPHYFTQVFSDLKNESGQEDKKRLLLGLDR
Dual specificity protein kinase CLK1, sequence (P49759 whole entry): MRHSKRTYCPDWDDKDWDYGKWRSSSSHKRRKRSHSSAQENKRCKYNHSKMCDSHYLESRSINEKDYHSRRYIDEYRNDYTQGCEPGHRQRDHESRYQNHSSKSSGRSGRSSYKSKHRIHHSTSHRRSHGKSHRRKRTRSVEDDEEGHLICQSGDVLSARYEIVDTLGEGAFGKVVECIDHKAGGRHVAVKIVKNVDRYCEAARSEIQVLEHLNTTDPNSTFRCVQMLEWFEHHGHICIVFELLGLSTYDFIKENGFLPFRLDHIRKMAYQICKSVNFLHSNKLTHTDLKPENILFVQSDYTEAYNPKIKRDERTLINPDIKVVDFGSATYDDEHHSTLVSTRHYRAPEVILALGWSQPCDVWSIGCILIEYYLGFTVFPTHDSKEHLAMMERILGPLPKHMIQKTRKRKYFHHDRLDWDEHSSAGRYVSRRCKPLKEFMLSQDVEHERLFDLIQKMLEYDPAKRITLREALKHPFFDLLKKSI

Regarding `CC(=O)Nc1ccc(-c2cnc(N)nc2-c2c[nH]c3cc(Br)ccc23)cc1`, the IC50 was greater than 10 µM in assay [1]; 8.1 µM in assay [2]; 1.6 µM in assay [3]; 3.1 µM in assay [4]; 24 µM in [5]; greater than 10 µM in the assay with HT-22. Besides, the 50% inhibitory concentration (IC50) in the assay with SH-SY5Y is greater than 10 µM; with IMR-32, greater than 10 µM; in the assay with MCF7 it was greater than 10 µM; in the assay on PA-1, 12 µM; in the assay with PC-3, 14 µM; in the assay with DU-145, 20 µM. Moreover, the half-maximal inhibitory concentration (IC50) in assay [6] stood at 0.53 µM.

Consider `CC(=O)Nc1ccc(-c2cnc(N)nc2-c2c[nH]c3c(Br)cccc23)cc1`, for which the IC50 is 7.5 µM in [1]; greater than 10 µM in [2]; 2.2 µM in assay [3]; 0.19 µM in assay [4]; 8 µM in assay [5]; greater than 25 µM with HT-22. In addition, the IC50 was 25 µM with SH-SY5Y; 25 µM with IMR-32; greater than 25 µM in the assay on MCF7; 3 µM with PA-1; 5 µM in the assay with PC-3; 13 µM with DU-145. The molecule further showed a concentration for half-maximal inhibition (IC50) in assay [6] of 0.087 µM.

For `Nc1ncc(-c2ccc(C(F)(F)F)cc2)c(-c2c[nH]c3c(Br)cccc23)n1`, the half-maximal inhibitory concentration (IC50) in assay [1] was greater than 10 µM; in assay [2], greater than 10 µM; in [3] it was 8.5 µM; in assay [4], 1.25 µM; in [5], 14 µM; in the assay on HT-22 it was greater than 10 µM. For the same molecule, the IC50 in the assay on SH-SY5Y is greater than 10 µM; in the assay with IMR-32, greater than 10 µM; with MCF7, greater than 10 µM; in the assay on PA-1 it was 17 µM; in the assay with PC-3, 8 µM; in the assay with DU-145, 18 µM. In addition, the 50% inhibitory concentration (IC50) in assay [6] was determined as 1.5 µM.

For the molecule `Nc1ncc(I)c(-c2c[nH]c3cc(Br)ccc23)n1`, the IC50 amounted to 0.68 µM in assay [1]; 0.7 µM in assay [2]; 1.1 µM in assay [3]; 0.034 µM in assay [4]; 3.5 µM in assay [5]; 5.1 µM with HT-22. Moreover, the half-inhibitory concentration (IC50) with SH-SY5Y is 3.2 µM; with IMR-32, 3.8 µM; in the assay on MCF7, 5.2 µM; in the assay on PA-1, less than 1 µM; with PC-3, 2.9 µM; in the assay with DU-145 it was less than 1 µM. In assay [6], this molecule registered an IC50 of 0.032 µM.

Consider `Nc1ncc(I)c(-c2c[nH]c3c(Br)cccc23)n1`, for which the IC50 is 2.1 µM in assay [1]; 1.6 µM in assay [2]; 4 µM in assay [3]; 0.039 µM in assay [4]; 10 µM in assay [5]; 12 µM in the assay on HT-22. Also, the IC50 is 8 µM with SH-SY5Y; 7.3 µM with IMR-32; 17 µM in the assay on MCF7; 2 µM in the assay on PA-1; 15 µM in the assay with PC-3; 4.2 µM with DU-145. The half-inhibitory concentration (IC50) in assay [6] was 0.042 µM.

In the case of `CC(=O)c1ccc(-c2cnc(N)nc2-c2c[nH]c3cc(Br)ccc23)cc1`, the IC50 in assay [1] is greater than 10 µM; in [2], greater than 10 µM; in assay [3], 2 µM; in assay [4] it was greater than 10 µM; in assay [5], less than 0.6 µM; in the assay on HT-22, 2.5 µM. The 50% inhibitory concentration (IC50) with SH-SY5Y was 0.4 µM; in the assay with IMR-32, 0.33 µM; in the assay with MCF7 it was 1 µM; with PA-1, less than 0.6 µM; in the assay with PC-3 it was less than 0.6 µM; with DU-145, less than 0.6 µM. Besides, in assay [6], 1.8 µM corresponded to half-maximal inhibition (IC50).

`CC(=O)c1ccc(-c2cnc(N)nc2-c2c[nH]c3c(Br)cccc23)cc1`: the concentration for half-maximal inhibition (IC50) in assay [1] was greater than 10 µM; in assay [2], greater than 10 µM; in assay [3], 4.5 µM; in [4] it was 0.29 µM; in assay [5], 18.4 µM; in the assay with HT-22 it was greater than 10 µM. The IC50 in the assay on SH-SY5Y is greater than 10 µM; in the assay on IMR-32, greater than 10 µM; in the assay with MCF7, greater than 10 µM; in the assay on PA-1, 0.8 µM; in the assay on PC-3 it was 3.6 µM; in the assay on DU-145, 5.7 µM. In assay [6], this molecule had an IC50 of 0.38 µM.
